# Values of other authors, collected in US20060276412A1, “METHODS AND COMPOSITIONS FOR MANAGING PSYCHOTIC DISORDERS” (priority 2005, published 2006).
# Columns and labels:
# Conditions in all cases: cited from earlier work
# [1] = system: serotonin receptors
# [2] = system: histaminic receptors
# [3] = system: dopamine receptors
# [4] = system: alpha-adrenergic receptors
smiles,measurement,setting,value
O=C1Cc2cc(CCN3CCN(c4nsc5ccccc45)CC3)c(Cl)cc2N1 [ziprasidone],affinity for serotonin receptors,[1],high affinity
same,affinity for histaminic receptors,[2],medium affinity
same,affinity for dopamine receptors,[3],high affinity
same,affinity for alpha-adrenergic receptors,[4],high affinity
